According to the NIST ThermoML archive (doi:10.1021/je034002l):
± gives the expanded uncertainty stated by the source.

Key:
[1] = 101.3 kPa, Liquid
[2] = xn = mol fraction of the nth substance listed; conditions: 101.3 kPa, Liquid, x2 = 0

## CCCCCCCl [1-chlorohexane]
[1]; 293.15 K
  mass density: 878.52 ± 0.84 kg/m3
  viscosity: 0.7704 ± 0.01 mPa·s
[1]; 298.15 K
  mass density: 873.75 ± 0.88 kg/m3
  viscosity: 0.7173 ± 0.0096 mPa·s
[1]; 303.15 K
  mass density: 868.98 ± 0.91 kg/m3
  viscosity: 0.6702 ± 0.0091 mPa·s
[1]; 308.15 K
  mass density: 864.21 ± 0.95 kg/m3
  viscosity: 0.6283 ± 0.0086 mPa·s
[1]; 313.15 K
  mass density: 859.44 ± 0.99 kg/m3
  viscosity: 0.591 ± 0.0082 mPa·s
[1]; 318.15 K
  mass density: 854.67 ± 1 kg/m3
  viscosity: 0.558 ± 0.0078 mPa·s
[1]; 323.15 K
  mass density: 849.9 ± 1.1 kg/m3
  viscosity: 0.5285 ± 0.0075 mPa·s
[1]; 328.15 K
  mass density: 845.12 ± 1.1 kg/m3
  viscosity: 0.5019 ± 0.0072 mPa·s
[1]; 333.15 K
  mass density: 840.35 ± 1.1 kg/m3
  viscosity: 0.4778 ± 0.0069 mPa·s

## CCCCCC [hexane]
[1]; 293.15 K
  mass density: 659.44 ± 0.52 kg/m3
  viscosity: 0.3163 ± 0.005 mPa·s
[1]; 298.15 K
  mass density: 654.93 ± 0.56 kg/m3
  viscosity: 0.3036 ± 0.0049 mPa·s
[1]; 303.15 K
  mass density: 650.36 ± 0.6 kg/m3
  viscosity: 0.2914 ± 0.0047 mPa·s
[1]; 308.15 K
  mass density: 645.74 ± 0.64 kg/m3
  viscosity: 0.2797 ± 0.0046 mPa·s
[1]; 313.15 K
  mass density: 641.08 ± 0.68 kg/m3
  viscosity: 0.2685 ± 0.0045 mPa·s
[1]; 318.15 K
  mass density: 636.37 ± 0.72 kg/m3
  viscosity: 0.258 ± 0.0044 mPa·s
[1]; 323.15 K
  mass density: 631.61 ± 0.76 kg/m3
  viscosity: 0.2482 ± 0.0043 mPa·s
[1]; 328.15 K
  mass density: 626.81 ± 0.8 kg/m3
  viscosity: 0.2391 ± 0.0042 mPa·s
[1]; 333.15 K
  mass density: 621.95 ± 0.84 kg/m3
  viscosity: 0.2308 ± 0.0041 mPa·s

## CCCCCC [hexane] + CCCCCCCl
[2]; 293.15 K
  mass density: 659.44 ± 0.52 kg/m3
  viscosity: 0.3163 ± 0.005 mPa·s
[2]; 298.15 K
  mass density: 654.93 ± 0.56 kg/m3
  viscosity: 0.3036 ± 0.0049 mPa·s
[2]; 303.15 K
  mass density: 650.36 ± 0.6 kg/m3
  viscosity: 0.2914 ± 0.0047 mPa·s
[2]; 308.15 K
  mass density: 645.74 ± 0.64 kg/m3
  viscosity: 0.2797 ± 0.0046 mPa·s
[2]; 313.15 K
  mass density: 641.08 ± 0.68 kg/m3
  viscosity: 0.2685 ± 0.0045 mPa·s
[2]; 318.15 K
  mass density: 636.37 ± 0.72 kg/m3
  viscosity: 0.258 ± 0.0044 mPa·s
[2]; 323.15 K
  mass density: 631.61 ± 0.76 kg/m3
  viscosity: 0.2482 ± 0.0043 mPa·s
[2]; 328.15 K
  mass density: 626.81 ± 0.8 kg/m3
  viscosity: 0.2391 ± 0.0042 mPa·s
[2]; 333.15 K
  mass density: 621.95 ± 0.84 kg/m3
  viscosity: 0.2308 ± 0.0041 mPa·s
